In ChEMBL document CHEMBL1201862, “PubChem BioAssay data set” (2004):
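Values below derive from 48-hour exposures of cells grown in 96-well plates, with endpoints linearly interpolated between the two concentrations bracketing the appropriate inhibition level. Here, GI50 denotes the concentration required for 50% inhibition of growth.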 Calls of active or inactive are those of the source. No stated cut-off is given here; in the data, active = GI50 up to about 1.1 µM and inactive = higher.

What was measured:
Experiment in all cases: NCI tumour cell line growth inhibition, 48 h
A498 = test system: A498
A549 = test system: A549
CAKI-1 = test system: CAKI-1
DU-145 = test system: DU-145
EKVX = test system: EKVX
HCT-15 = test system: HCT-15
HL-60 = test system: HL-60
HOP-92 = test system: HOP-92
MDA-MB-435 = test system: MDA-MB-435
Malme-3M = test system: Malme-3M
NCI-H522 = test system: NCI-H522
NCI/ADR-RES = test system: NCI/ADR-RES
OVCAR-4 = test system: OVCAR-4
OVCAR-5 = test system: OVCAR-5
RPMI-8226 = test system: RPMI-8226
RXF 393 = test system: RXF 393
SF-539 = test system: SF-539
SK-MEL-2 = test system: SK-MEL-2
SK-MEL-5 = test system: SK-MEL-5
SNB-75 = test system: SNB-75

Row | Structure (SMILES) | GI50 (A498) | GI50 (A549) | GI50 (CAKI-1) | GI50 (DU-145) | GI50 (EKVX) | GI50 (HCT-15) | GI50 (HL-60) | GI50 (HOP-92) | GI50 (MDA-MB-435) | GI50 (Malme-3M) | GI50 (NCI-H522) | GI50 (NCI/ADR-RES) | GI50 (OVCAR-4) | GI50 (OVCAR-5) | GI50 (RPMI-8226) | GI50 (RXF 393) | GI50 (SF-539) | GI50 (SK-MEL-2) | GI50 (SK-MEL-5) | GI50 (SNB-75)
1 | COC(=O)[C@@H]1c2c(oc3cc(CO)cc(O)c3c2=O)C=C[C@H]1O | 7.26 µM (inactive) | 16.8 µM (inactive) | 8 µM (inactive) | 3.24 µM (inactive) | 13.3 µM (inactive) | 2.7 µM | 2.25 µM (inactive) | 8.63 µM (inactive) | 4.15 µM (inactive) | 1.74 µM (inactive) | 1.84 µM (inactive) | 17.9 µM (inactive) | 3.52 µM (inactive) | 9.51 µM (inactive) | 2.49 µM (inactive) | 2.8 µM (inactive) | 2.67 µM (inactive) | 15.2 µM (inactive) | 5.73 µM (inactive) | 17.9 µM (inactive)
2 | CC(=O)C1=C(C)O[C@@H]2O[C@H](COCc3ccccc3)[C@@H](OCc3ccccc3)[C@H](O)[C@@H]2S1 | 25.1 µM (inactive) | 27.8 µM (inactive) | 49.3 µM (inactive) | 20.8 µM (inactive) | 25.1 µM (inactive) | 21.3 µM | 16.4 µM (inactive) | 22.9 µM (inactive) | 19 µM (inactive) | 18.3 µM (inactive) | 15 µM (inactive) | 16.3 µM (inactive) | 24.7 µM (inactive) | 24.8 µM (inactive) | 17.2 µM (inactive) | 13.8 µM (inactive) | 20 µM (inactive) | 20.4 µM (inactive) | 16.5 µM (inactive) | 23.3 µM (inactive)
3 | COc1ccc(/C=C2\N/C(=N\N=C/C(O)C(O)C(O)C(O)CO)NC2=O)cc1 (stereo not given) | 26.9 µM (inactive) | > 100 µM (inactive) | > 100 µM (inactive) | 30.4 µM (inactive) | > 100 µM (inactive) | > 100 µM | > 100 µM (inactive) | 16.1 µM (inactive) | 26.2 µM (inactive) | 23.1 µM (inactive) | 20.3 µM (inactive) | > 100 µM (inactive) | 24 µM (inactive) | > 100 µM (inactive) | > 100 µM (inactive) | 56.5 µM (inactive) | 19.6 µM (inactive) | 17.8 µM (inactive) | 47.3 µM (inactive) | 22.1 µM (inactive)
4 | Cc1ccc2c(c1)C/C(=C\c1ccccc1C(=O)O)C2=O | > 100 µM (inactive) | > 100 µM (inactive) | > 100 µM (inactive) | > 100 µM (inactive) | > 100 µM (inactive) | > 100 µM | > 100 µM (inactive) | > 100 µM (inactive) | > 100 µM (inactive) | > 100 µM (inactive) | > 100 µM (inactive) | > 100 µM (inactive) | > 100 µM (inactive) | > 100 µM (inactive) | 43.7 µM (inactive) | > 100 µM (inactive) | 50.1 µM (inactive) | > 100 µM (inactive) | 52.6 µM (inactive) | > 100 µM (inactive)
5 | [O-][S+]1SC(=S)C2C=CC=CC21 (stereo not given) | 93.1 µM (inactive) | 38.2 µM (inactive) | > 100 µM (inactive) | > 100 µM (inactive) | 57.5 µM (inactive) | 40.9 µM | 1.62 µM (inactive) | > 100 µM (inactive) | 80 µM (inactive) | 95.9 µM (inactive) | 76.2 µM (inactive) | > 100 µM (inactive) | > 100 µM (inactive) | > 100 µM (inactive) | 92.9 µM (inactive) | > 100 µM (inactive) | > 100 µM (inactive) | > 100 µM (inactive) | 29.4 µM (inactive) | 74 µM (inactive)
6 | CC1=CC[C@H](C(C)C)C(C(O)[C@@H](C)O[Si](c2ccccc2)(c2ccccc2)C(C)(C)C)C1=O (stereo not given in full) | 18.6 µM (inactive) | 14.7 µM (inactive) | 14 µM (inactive) | 21.4 µM (inactive) | 13.3 µM (inactive) | 13.9 µM | 16.9 µM (inactive) | 20.8 µM (inactive) | 21.4 µM (inactive) | 28.8 µM (inactive) | 16.5 µM (inactive) | 16.7 µM (inactive) | 15.5 µM (inactive) | 18.9 µM (inactive) | 9.73 µM (inactive) | 13.5 µM (inactive) | 20.1 µM (inactive) | 15.1 µM (inactive) | 16.2 µM (inactive) | 23 µM (inactive)
7 | COc1cc(C2c3cc4c(cc3OC(N3CCNCC3)C2C)OCO4)cc(OC)c1OC (stereo not given) | 0.726 µM (active) | 1.79 µM (inactive) | 0.476 µM (active) | 0.594 µM (active) | 6.38 µM (inactive) | 0.893 µM | 0.288 µM (active) | 0.748 µM (active) | 0.269 µM (active) | 0.294 µM (active) | 0.861 µM (active) | 0.597 µM (active) | 1.66 µM (inactive) | 5.13 µM (inactive) | 0.804 µM (active) | 0.3 µM (active) | 0.344 µM (active) | 1 µM (active) | 0.38 µM (active) | 0.262 µM (active)
8 | Clc1ccc(C2NN=C3c4ccccc4OCC32)cc1 (stereo not given) | 18.2 µM (inactive) | 5.41 µM (inactive) | 12.2 µM (inactive) | 14.9 µM (inactive) | 3.59 µM (inactive) | 3.08 µM | 3.15 µM (inactive) | 19.6 µM (inactive) | 2.38 µM (inactive) | 3.15 µM (inactive) | 1.5 µM (inactive) | 2.35 µM (inactive) | 13.4 µM (inactive) | 8.87 µM (inactive) | 2.44 µM (inactive) | 3.46 µM (inactive) | 2.17 µM (inactive) | 3.48 µM (inactive) | 3.01 µM (inactive) | 5.53 µM (inactive)
9 | CC(=O)NNC1=NN(C(C)=O)C2(S1)C(=O)Nc1ccc(Br)cc12 (stereo not given) | > 100 µM (inactive) | > 100 µM (inactive) | > 100 µM (inactive) | > 100 µM (inactive) | > 100 µM (inactive) | > 100 µM | > 100 µM (inactive) | 65.5 µM (inactive) | > 100 µM (inactive) | > 100 µM (inactive) | > 100 µM (inactive) | > 100 µM (inactive) | 78.3 µM (inactive) | > 100 µM (inactive) | > 100 µM (inactive) | > 100 µM (inactive) | > 100 µM (inactive) | > 100 µM (inactive) | > 100 µM (inactive) | > 100 µM (inactive)
10 | CNC(=O)Nc1ccccc1 | > 100 µM (inactive) | > 100 µM (inactive) | > 100 µM (inactive) | > 100 µM (inactive) | > 100 µM (inactive) | > 100 µM | > 100 µM (inactive) | > 100 µM (inactive) | > 100 µM (inactive) | > 100 µM (inactive) | > 100 µM (inactive) | > 100 µM (inactive) | > 100 µM (inactive) | > 100 µM (inactive) | > 100 µM (inactive) | > 100 µM (inactive) | > 100 µM (inactive) | > 100 µM (inactive) | > 100 µM (inactive) | > 74.6 µM (inactive)
